In US9822069B2, “Urea derivative or pharmacologically acceptable salt thereof” (KYORIN PHARMACEUTICAL CO. LTD., priority 2013, dated 2017):
pEC50: −log10 of the molar value.

What was measured:
[1] = system: mouse (BALB/c, male); experiment: Effect of lipopolysaccharide induction on neutrophilic infiltration in mouse lung; format: in vivo; details: neutrophil infiltration in BAL fluid, LPS-exposed BALB/c mouse, oral; for inhibition in vivo at 1 mg/kg / inhibition in vivo at 3 mg/kg: 5 h, read-out: SUPPRESSION RATIO
Protocol: Effect of Lipopolysaccharide Induction on Neutrophilic Infiltration in Mouse Lung A compound to be tested was orally administrated to a mouse (BALB/c, male), and after 30 minutes, the mouse was placed in a plastic container. Lipopolysaccharide (0.3 mg/mL) dissolved in physiological saline was aerosolized with an ultrasonic wave nebulizer (NE-U17, OMRON Corporation), and exposed to the mouse for 10 minutes. After 5 hours, the anesthetized mouse was sacrificed by exsanguination. A cannula was inserted in the respiratory tract and bronchoalveolar lavage (BAL) with 1 mL of 0.85% NaCl liquid containing 0.4% sodium citrate was carried out. This operation was repeated 3 times, to obtain a BAL fluid. The BAL fluid was centrifuged at 4° C. and ×200 g for 5 minutes, and the pellet was suspended in a physiological saline containing 0.1% BSA. The number of white blood cells was counted using Turks solution with a microscope, and the total white blood cell count was calculated. The white blood cells were fixed on a glass slide using Cytospin 3 (Thermo BioAnalysis Japan K. K.). The cells were stained with Diff-Quik (SYSMEX INTERNATIONAL REAGENTS CO., LTD.), and the number thereof was counted with a microscope, and the neutrophil ratio was calculated. The neutrophil ratio was multiplied by the total white blood cell count to calculate the total neutrophil count. An effect of the compound to be tested represents a percentage (%) of suppression ratio relative to the neutrophil count in a control.

[2] = biological target: T1, human FPRL1 (Homo sapiens, UniProt P25090); experiment: Measurement test of agonist activity on human FPRL1 (test of calcium mobilization in cell, HEK293 with human FPRL1 and Gα15 expression vectors); format: cell-based; details: calcium mobilization in HEK293 cells with human FPRL1 and Gα15 expression vectors
T1 construct: expressed in transfected cells; host or cells: HEK293 (JCRB9068, NIBIO), transient transfection with pCMV-script vectors using Lipofectamine 2000
T1 sequence (P25090 1-351): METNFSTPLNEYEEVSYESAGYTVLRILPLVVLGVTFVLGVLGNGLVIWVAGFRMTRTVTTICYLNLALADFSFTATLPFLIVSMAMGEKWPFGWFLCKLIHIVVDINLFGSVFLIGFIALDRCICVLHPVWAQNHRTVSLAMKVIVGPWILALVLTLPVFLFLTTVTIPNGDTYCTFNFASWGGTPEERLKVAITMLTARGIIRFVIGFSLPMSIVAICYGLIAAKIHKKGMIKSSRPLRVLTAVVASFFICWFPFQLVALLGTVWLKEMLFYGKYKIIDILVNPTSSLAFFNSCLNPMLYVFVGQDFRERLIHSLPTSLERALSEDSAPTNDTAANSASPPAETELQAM
In short: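 HEK293 transiently co-transfected with human FPRL1 and Gα15, plated 24 h before assay, loaded with Fluo-4 NW dye plus probenecid. Compounds in eight 10-fold dilutions (DMSO stocks 10^−2 to 10^−9 M, then diluted 100-fold in assay buffer); calcium mobilization read on Flexstation for EC50.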

Row | SMILES | inhibition in vivo at 1 mg/kg ([1]; dose 1 mg/kg) | pEC50 [2] | inhibition in vivo at 3 mg/kg [1] | SUPPRESSION RATIO (%) ([1]; dose 1 mg/kg)
1 | COc1ccc([C@@H]2CNC(=O)[C@H]2NC(=O)Nc2ccc(F)cc2)cc1 (single isomer, unassigned) [EXAMPLE 1-1, (−)-1-(4-Fluorophenyl)-3-[(3S*,4R*)-4-(4-methoxyphenyl)-2-oxopyrrolidin-3-yl]urea] | 95.1% | 10.05 | – | –
2 | COc1ccc([C@@H]2CNC(=O)[C@H]2NC(=O)Nc2ccc(Cl)cc2)cc1 (single isomer, unassigned) [EXAMPLE 1-2, (-)-1-(4-chlorophenyl)-3-[(3S*,4R*)-4-(4-methoxyphenyl)-2-oxopyrrolidin-3-yl]urea] | 99.2% | 10.05 | – | –
3 | COc1ccc([C@@H]2CNC(=O)[C@H]2NC(=O)Nc2ccc(F)cc2)c(F)c1 (single isomer, unassigned) [EXAMPLE 1-9, (−)-1-[(3S*,4R*)-4-(2-fluoro-4-methoxyphenyl)-2-oxopyrrolidin-3-yl]-3-(4-fluorophenyl)urea] | – | 9.35 | 98.5% | –
4 | COc1cc(F)c([C@@H]2CNC(=O)[C@H]2NC(=O)Nc2ccc(F)cc2)c(F)c1 (single isomer, unassigned) [EXAMPLE 1-12, (−)-1-[(3S*,4R*)-4-(2,6-difluoro-4-methoxyphenyl)-2-oxopyrrolidin-3-yl]-3-(4-fluorophenyl)urea] | 96.8% | 10.22 | – | –
5 | O=C(Nc1ccc(F)cc1)N[C@@H]1C(=O)NC[C@H]1c1cc2c(cc1F)OCC2 (single isomer, unassigned) [EXAMPLE 1-16, (−)-1-[(3S*,4R*)-4-(6-fluoro-2,3-dihydrobenzofuran-5-yl)-2-oxopyrrolidin-3-yl]-3-(4-fluorophenyl)urea] | 95.8% | 9.62 | – | –
6 | COc1cnc([C@@H]2CNC(=O)[C@H]2NC(=O)Nc2ccc(F)cc2)c(F)c1 (single isomer, unassigned) [EXAMPLE 1-18, (−)-1-[(3S*,4R*)-4-(3-fluoro-5-methoxypyridin-2-yl)-2-oxopyrrolidin-3-yl]-3-(4-fluorophenyl)urea] | 98.3% | 9.44 | – | –
7 | COc1cc(F)c([C@@H]2CNC(=O)[C@H]2NC(=O)Nc2ccc(Cl)cc2)c(F)c1 (single isomer, unassigned) [EXAMPLE 1-22, (−)-1-(4-chlorophenyl)-3-[(3S*,4R*)-4-(2,6-difluoro-4-methoxyphenyl)-2-oxopyrrolidin-3-yl]urea] | 93.1% | 9.96 | – | –
8 | COc1cc(F)c([C@@H]2CNC(=O)[C@H]2NC(=O)Nc2ccc(C#N)cc2)c(F)c1 (single isomer, unassigned) [EXAMPLE 1-23, (−)-1-(4-cyanophenyl)-3-[(3S*,4R*)-4-(2,6-difluoro-4-methoxyphenyl)-2-oxopyrrolidin-3-yl]urea] | – | 9.11 | 98.9% | –
9 | COc1ccc([C@@H]2CN(CCO)C(=O)[C@H]2NC(=O)Nc2ccc(F)cc2)c(F)c1 (single isomer, unassigned) [EXAMPLE 25-1, (−)-1-[(3S*,4R*)-4-(2-Fluoro-4-methoxyphenyl)-1-(2-hydroxyethyl)-2-oxopyrrolidin-3-yl]-3-(4-fluorophenyl)urea] | – | 10.40 | 99.1% | –
10 | COc1cc(F)c([C@@H]2CN(CCO)C(=O)[C@H]2NC(=O)Nc2ccc(F)cc2)c(F)c1 (single isomer, unassigned) [EXAMPLE 26-1, (−)-1-[(3S*,4R*)-4-(2,6-Difluoro-4-methoxyphenyl)-1-(2-hydroxyethyl)-2-oxopyrrolidin-3-yl]-3-(4-fluorophenyl)urea] | 99.6% | 10.15 | – | –
11 | CO/N=C1\NC[C@@H](c2ccc(OC)cc2)[C@@H]1NC(=O)Nc1ccc(F)cc1 (single isomer, unassigned) [EXAMPLE 32-1, (−)-1-(4-Fluorophenyl)-3-[(3S*,4R*,Z)-2-(methoxyimino)-4-(4-methoxyphenyl)pyrrolidin-3-yl]urea] | – | 9.89 | 99% | –
12 | CO/N=C1\NC[C@@H](c2c(F)cc(OC)cc2F)[C@@H]1NC(=O)Nc1ccc(F)cc1 (single isomer, unassigned) [EXAMPLE 32-3, (−)-1-[(3S*,4R*,Z)-4-(2,6-difluoro-4-methoxyphenyl)-2-(methoxyimino)pyrrolidin-3-yl]-3-(4-fluorophenyl)urea] | – | 10.30 | 99.1% | –
13 | COc1cc(F)c([C@@H]2CN/C(=N\OCCO)[C@H]2NC(=O)Nc2ccc(F)cc2)c(F)c1 (single isomer, unassigned) [EXAMPLE 32-5, (−)-1-{(3S*,4R*,Z)-4-(2,6-difluoro-4-methoxyphenyl)-2-[(2-hydroxyethoxy)imino]pyrrolidin-3-yl}-3-(4-fluorophenyl)urea] | 99.8% | 10.52 | – | –
14 | COc1cc(F)c([C@@H]2CN/C(=N\OCCO)[C@H]2NC(=O)Nc2ccc(C)cc2)c(F)c1 (single isomer, unassigned) [EXAMPLE 32-12, (−)-1-{(3S*,4R*,Z)-4-(2,6-difluoro-4-methoxyphenyl)-2-[(2-hydroxyethoxy)imino]pyrrolidin-3-yl}-3-(p-tolyl)urea] | – | 9.57 | – | 96.8%
